Results reported in patent US12350252B2, “Water-soluble cannabinoid formulations and methods of their making” (SOLUSCIENCE, LLC, priority 2019, dated 2025).

Experiment: Accelerated stability study of 2% CBD colloidal dispersion (cannabinoid profile, appearance, pH, microbial growth)
Format: physicochemical
Method: The solid dispersion included 20% CBD, 75% of Poloxamer 407 and 5% ascorbic acid was dissolved in distilled water to produce the homogenic, stable colloidal dispersion of cannabidiol at 2% (20 mg/mL) by weight of the formulation.

[1] = Day # 0, content in colloidal dispersion of cannabidiol at 2% (20 mg/mL)
[2] = Day # 90, stored at 100° F. (38° C.), content in colloidal dispersion of cannabidiol at 2%

SMILES	Cannabinoid profile Result [1] [mg/g]	Cannabinoid profile Result (%) [1] [%]	Cannabinoid profile Result [2] [mg/g]	Cannabinoid profile Result (%) [2] [%]
CCCCCc1cc(O)c2c(c1)OC(C)(C)c1ccc(C)cc1-2 [Cannabinol (CBN), Cannabinol]	0.3	0.03	–	–
C=C(C)[C@@H]1CCC(C)=C[C@H]1c1c(O)cc(CCCCC)cc1O [Cannabidiol (CBD), Cannabidiol]	20.2	2.02	21.9	2.19
CCCCCc1cc(O)c(C/C=C(\C)CCC=C(C)C)c(O)c1 [Cannabigerol (CBG), Cannabigerol]	0.3	0.03	–	–
